Values of other authors, collected in US12171220B2, “High osmolarity antimicrobial composition containing one or more organic solvents” (Next Science IP Holdings Pty Ltd, priority 2013, dated 2024).
Like-named read-outs stand apart in the source and are kept apart here.

Details: for ~δp (MPa^1/2): room temperature
[1] = solvents added in Examples 65-80, text

| Structure (SMILES) | ~δp (MPa^1/2) (alcohols, Table 2) | ~δp (MPa^1/2) (glycol ethers, Table 1) | further results |
| --- | --- | --- | --- |
| OCC(Cl)CCl (centres unmarked) [2,3-dichloropropanol] | ~9.2 MPa^1/2 | – | – |
| OC1C=CCC1 (centres unmarked) [2-cyclopentenyl alcohol] | ~7.6 MPa^1/2 | – | – |
| CC(C)COCC(C)O (centres unmarked) [propylene glycol monoisobutyl ether] | – | ~4.7 MPa^1/2 | – |
| OC1CCCCC1 [cyclohexanol] | ~4.1 MPa^1/2 | – | – |
| C=CCO [Example 2-propenol, 2-propenol] | ~10.8 MPa^1/2 | – | – |
| CC(C)(C)O [t-butyl alcohol] | ~5.1 MPa^1/2 | – | – |
| CCOCCOCCO [diethylene glycol monoethyl ether] | – | ~9.2 MPa^1/2 | – |
| CCOCCO [ethylene glycol monoethyl ether] | – | ~9.2 MPa^1/2 | – |
| CC(C)OCCO [ethylene glycol monoisopropyl ether] | – | ~8.2 MPa^1/2 | – |
| OCCOCc1ccccc1 [ethylene glycol monobenzyl ether] | – | ~5.9 MPa^1/2 | – |
| CO [methanol] | ~12.3 MPa^1/2 | – | – |
| CCCC(C)O (centres unmarked) [Example 2-pentanol, 2-pentanol] | ~6.4 MPa^1/2 | – | – |
| CCCCOCCO [ethylene glycol monobutyl ether] | – | ~5.1 MPa^1/2 | – |
| CCCCC(CC)CO (centres unmarked) [2-ethyl-hexanol] | ~3.3 MPa^1/2 | – | – |
| CCCO [Example 1-propanol, 1-propanol] | ~6.8 MPa^1/2 | – | – |
| CC(C)CCCCCO [isooctyl alcohol] | ~7.3 MPa^1/2 | – | – |
| OCCOc1ccccc1 [ethylene glycol monophenyl ether] | – | ~5.7 MPa^1/2 | – |
| CCCCO [Example 1-butanol, 1-butanol] | ~5.7 MPa^1/2 | – | – |
| CCCCCCCCCCO [Example 1-decanol, 1-decanol] | ~10.0 MPa^1/2 | – | – |
| CCO [ethanol] | ~8.8 MPa^1/2 | – | – |
| CCCCCCCC/C=C\CCCCCCCCOCCOCCOCCO [triethylene glycol monooleyl ether] | – | ~3.1 MPa^1/2 | – |

| Structure (SMILES) | ~δp (MPa^1/2) (alcohols, Table 2) | ~δp (MPa^1/2) (glycol ethers, Table 1) | further results |
| --- | --- | --- | --- |
| COCCO [ethylene glycol monomethyl ether] | – | ~9.2 MPa^1/2 | – |
| CC(C)O [Example 2-propanol, 2-propanol] | ~6.1 MPa^1/2 | – | – |
| CCCCCO [Example 1-pentanol, 1-pentanol] | ~4.5 MPa^1/2 | – | – |
| CCOCC(C)O (centres unmarked) [propylene glycol monoethyl ether] | – | ~6.5 MPa^1/2 | – |
| CCCCCCCC/C=C\CCCCCCCCO [oleyl alcohol] | ~2.6 MPa^1/2 | – | – |
| CCOC(C)=O [ethyl acetate] | – | – | δp [1]: 5.3 |
| CCCCCCCCC(C)O (centres unmarked) [Example 2-decanol, 2-decanol] | ~10.0 MPa^1/2 | – | – |
| O [water] | – | – | δp (water): ≈ 16.0 MPa^1/2 |
| COCC(C)O (centres unmarked) [propylene glycol monomethyl ether] | – | ~6.3 MPa^1/2 | – |
| CCCOCCO [ethylene glycol monopropyl ether] | – | ~8.2 MPa^1/2 | – |
| CCCCOCCOCCO [diethylene glycol mono-n-butyl ether] | – | ~7.0 MPa^1/2 | – |
| COCCOCCO [diethylene glycol monomethyl ether] | – | ~7.8 MPa^1/2 | – |
| OCc1ccc(Cl)cc1 [4-chlorobenzyl alcohol] | ~7.5 MPa^1/2 | – | – |
| Clc1ccccc1 [chlorobenzene] | – | – | δp [1]: 4.3 |
| CCC(CC)CO [2-ethyl-1-butanol] | ~4.3 MPa^1/2 | – | – |
| COCCOCCOCCO [triethylene glycol monomethyl ether] | – | ~7.6 MPa^1/2 | – |
| CCCOCC(C)O (centres unmarked) [propylene glycol monopropyl ether] | – | ~5.6 MPa^1/2 | – |
| CCCCCCCCO [octanol] | ~3.3 MPa^1/2 | – | – |
| CCCCOCC(C)O (centres unmarked) [propylene glycol monobutyl ether] | – | ~4.5 MPa^1/2 | – |
| CC(O)COC(C)C (centres unmarked) [propylene glycol monoisopropyl ether] | – | ~6.1 MPa^1/2 | – |
